Experimental data taken from article doi:10.1101/2021.10.07.463234v2 (biorxiv, 2021).
Where a name gives a salt, the structure may show the parent alone.

target: SARS-CoV-2 Mac1 (Severe acute respiratory syndrome coronavirus 2, UniProt P0DTD1); test: biochemical; details: 100 µM; inhibitor

| SMILES | %inhibition |
| --- | --- |
| C[C@H]1c2cccc(O)c2C(=O)C2=C(O)[C@]3(O)C(=O)C(C(N)=O)=C(O)[C@@H](N(C)C)[C@@H]3[C@@H](O)[C@@H]21 [Doxycycline Hyclate] | 21.8% |
| CC[C@H]1OC(=O)[C@H](C)[C@@H](O[C@H]2C[C@@](C)(OC)[C@@H](O)[C@H](C)O2)[C@H](C)[C@@H](O[C@@H]2O[C@H](C)C[C@H](N(C)C)[C@H]2O)[C@](C)(O)C[C@@H](C)C(=O)[C@H](C)[C@@H](O)[C@]1(C)O [Erythromycin thiocyanate] | 1.029% |
| O=C(O)/C=C/c1ccc(Cn2ccnc2)cc1 [Ozagrel sodium] | 1.667% |
| CC1(C)S[C@@H]2[C@H](NC(=O)[C@H](N)c3ccc(O)cc3)C(=O)N2[C@H]1C(=O)O [Amoxicillin] | 9.546% |
| COCCc1ccc(OCC(O)CNC(C)C)cc1 (stereo not shown) [Metoprolol Tartrate] | 45.82% |
| CC(C)(C)NCC(O)c1ccc(O)c(CO)c1 (stereo not shown) [Salbutamol Sulfate] | 6.444% |
| COc1cc2nccc(Oc3ccc(NC(=O)NC4CC4)c(Cl)c3)c2cc1C(N)=O [Lenvatinib (E7080)] | 22.86% |
| CCN(CC)Cc1cc(Nc2ccnc3cc(Cl)ccc23)ccc1O [Amodiaquine dihydrochloride dihydrate] | 0% |
| O=C(O)Cc1ccccc1Nc1c(Cl)cccc1Cl [Diclofenac Potassium] | 7.108% |
| OC[C@@H](O)[C@@H](O[C@@H]1O[C@H](CO)[C@H](O)[C@H](O)[C@H]1O)[C@H](O)[C@@H](O)CO [Lactitol] | 5.8% |
| COC(=O)c1ccc2c(C(=Nc3ccc(N(C)C(=O)CN4CCN(C)CC4)cc3)c3ccccc3)c(O)[nH]c2c1 [Nintedanib (BIBF 1120)] | 17.91% |

same assay, conditions: read-out: %inhibition

| SMILES | inhibition at 100 µM |
| --- | --- |
| COc1cc(Nc2ncc3c(n2)-c2ccc(Cl)cc2C(c2c(F)cccc2OC)=NC3)ccc1C(=O)O [Alisertib (MLN8237)] | 8.76% |
| C[C@H](CCC(=O)O)[C@H]1CC[C@H]2[C@@H]3[C@H](O)C[C@@H]4C[C@H](O)CC[C@]4(C)[C@H]3C[C@H](O)[C@]12C [Cholic acid] | 0% |
| Cn1c(=O)c2[nH]cnc2n(C)c1=O [Aminophylline] | 5.61% |
| C1=N/C2=N/c3ccc(OCCN4CCCC4)c(c3)COC/C=C/COCc3cccc(c3)C(=C1)N2 [Pacritinib (SB1518)] | 0% |
| N[C@@H](CC(=O)N1CCn2c(nnc2C(F)(F)F)C1)Cc1cc(F)c(F)cc1F [Sitagliptin] | 0% |
| CC#CCn1c(N2CCC[C@@H](N)C2)nc2c1c(=O)n(Cc1nc(C)c3ccccc3n1)c(=O)n2C [Linagliptin] | 23.9% |
| Nc1nc(N)nc(-c2cc(Cl)ccc2Cl)n1 [Irsogladine] | 22.5% |
| Nc1ccn(C[C@@H](CO)OCP(=O)(O)O)c(=O)n1 [Cidofovir] | 0% |
| Nc1cccc2c1CN(C1CCC(=O)NC1=O)C2=O (stereo not shown) [Lenalidomide (CC-5013)] | 40.3% |
| Cn1c([N+](=O)[O-])cnc1COC(N)=O [Ronidazole] | 0% |
| CCCCC[C@H](O)/C=C/[C@H]1[C@H](O)CC(=O)[C@@H]1CCCCCCC(=O)O [Alprostadil] | 0% |
| OCC(CO)N[C@H]1C[C@](O)(CO)[C@@H](O)[C@H](O)[C@H]1O [Voglibose] | 7.63% |
| CCc1ccc(CCOc2ccc(CC3SC(=O)NC3=O)cc2)nc1 (stereo not shown) [Pioglitazone] | 0% |
| CC(C)C(=O)OCC(=O)[C@@]12O[C@H](C3CCCCC3)O[C@@H]1C[C@H]1[C@@H]3CCC4=CC(=O)C=C[C@]4(C)[C@H]3[C@@H](O)C[C@@]12C [Ciclesonide] | 0% |
| COc1cc(S(=O)(=O)O)ccc1O [Sulfogaiacol] | 0% |
| CN1CCC(COc2cnc(-c3cccc(Cn4nc(-c5cccc(C#N)c5)ccc4=O)c3)nc2)CC1 [Tepotinib (EMD 1214063)] | 0% |
| OC[C@H]1O[C@@H](c2ccc(Cl)c(Cc3ccc(O[C@H]4CCOC4)cc3)c2)[C@H](O)[C@@H](O)[C@@H]1O [Empagliflozin (BI 10773)] | 0% |
| CCCCCCCCCCCCCCCCCC(=O)O [Stearic acid] | 6.72% |
| CC1(C)CCC(C)(C)c2cc(NC(=O)c3ccc(C(=O)O)cc3)ccc21 [Tamibarotene] | 1.99% |
| Cc1ccc(C(C)C)c(O)c1 [Thymol] | 0.387% |
| CN(CCOc1ccc(NS(C)(=O)=O)cc1)CCc1ccc(NS(C)(=O)=O)cc1 [Dofetilide] | 8.13% |

| SMILES | inhibition at 100 µM |
| --- | --- |
| CCCCCCCCC(=O)NCc1ccc(O)c(OC)c1 [Nonivamide] | 1.16% |
| Cc1oncc1C(=O)Nc1ccc(C(F)(F)F)cc1 [Leflunomide] | 22.5% |
| CCc1c(Cl)c(O)c(Cl)c(O)c1C(=O)O[C@H]1[C@H](O)[C@H](OC)[C@H](OC/C2=C\C=C\C[C@H](O)/C(C)=C/[C@H](CC)[C@@H](O[C@@H]3OC(C)(C)[C@@H](OC(=O)C(C)C)[C@H](O)[C@@H]3O)/C(C)=C/C(C)=C/C[C@@H]([C@@H](C)O)OC2=O)O[C@@H]1C [Fidaxomicin] | 5.76% |
| CN(C)CCC=C1c2ccccc2C=Cc2ccccc21 [Cyclobenzaprine HCl] | 3.24% |
| COC(c1ccccc1)(c1ccccc1)[C@H](Oc1nc(C)cc(C)n1)C(=O)O [Ambrisentan] | 0% |
| COc1ccc(C(=O)N2CCCC2=O)cc1 [Aniracetam] | 0% |
| COc1ccc(Cl)c(Nc2nc3ccccc3nc2NS(=O)(=O)c2cccc(NC(=O)C(C)(C)N)c2)c1 [Pilaralisib (XL147)] | 31.9% |
| OB1OCc2cc(F)ccc21 [Tavaborole (AN-2690)] | 0.84% |
| Oc1ccc(/C=C/c2cc(O)cc(O)c2)cc1 [Resveratrol] | 0% |
| CC(=O)OCC(=O)[C@@]1(O)[C@H](C)C[C@H]2[C@@H]3CCC4=CC(=O)C=C[C@]4(C)[C@@]3(F)[C@@H](O)C[C@@]21C [Dexamethasone Acetate] | 0% |
| C=CN1CCCC1=O [Povidone iodine] | 0% |
| C=C1/C(=C\C=C2/CCC[C@]3(C)[C@@H]([C@H](C)/C=C/[C@@H](O)C4CC4)CC[C@@H]23)C[C@@H](O)C[C@@H]1O [Calcipotriene] | 0% |
| Cc1ccc([C@@H]2O[C@H](CO)[C@@H](O)[C@H](O)[C@H]2O)cc1Cc1ccc(-c2ccc(F)cc2)s1 [Canagliflozin] | 0% |
| CCCCCCCCOc1ccccc1C(=O)Nc1ccc(C(=O)OCC[N+](C)(CC)CC)cc1 [Otilonium Bromide] | 11% |
| CCC(=O)O[C@]1(C(=O)CCl)[C@@H](C)C[C@H]2[C@@H]3CCC4=CC(=O)C=C[C@]4(C)[C@@]3(F)[C@@H](O)C[C@@]21C [Clobetasol propionate] | 9.68% |
| O=C1C(O)=C([C@H]2CC[C@H](c3ccc(Cl)cc3)CC2)C(=O)c2ccccc21 [Atovaquone] | 23.4% |
| CN1CCN(c2nc(C3=C(c4c[nH]c5ccccc45)C(=O)NC3=O)c3ccccc3n2)CC1 [Sotrastaurin] | 34.7% |
| CC(C)=CCC/C(C)=C/CC/C(C)=C/CCC(=O)OC/C=C(\C)CCC=C(C)C [Gefarnate] | 5.96% |
| CCC1(c2ccccc2)C(=O)NCNC1=O [Primidone] | 7.21% |
| NCC[C@H](O)C(=O)N[C@@H]1C[C@H](N)[C@@H](O[C@H]2O[C@H](CN)[C@@H](O)[C@H](O)[C@H]2O)[C@H](O)[C@H]1O[C@H]1O[C@H](CO)[C@@H](O)[C@H](N)[C@H]1O [Amikacin disulfate] | 0% |
| CC(C)=CCC/C(C)=C/CC/C(C)=C/CSc1ccccc1C(=O)O [Salirasib] | 0% |

| SMILES | inhibition at 100 µM |
| --- | --- |
| CC(C(=O)O)c1ccc2c(c1)Cc1cccnc1O2 (stereo not shown) [Pranoprofen] | 17.8% |
| OCCN1C[C@H](O)[C@@H](O)[C@H](O)[C@H]1CO [Miglitol] | 11% |
| CC(C)(CO)c1cc2cc(NC(=O)C3(c4ccc5c(c4)OC(F)(F)O5)CC3)c(F)cc2n1C[C@@H](O)CO [Tezacaftor(VX-661)] | 16.1% |
| COC(=O)C1=CCCN(C)C1 [Arecoline HBr] | 3.01% |
| CC[C@H]1OC(=O)C[C@@H](O)[C@H](C)[C@@H](O[C@@H]2O[C@H](C)[C@@H](O[C@H]3C[C@@](C)(O)[C@@H](O)[C@H](C)O3)[C@H](N(C)C)[C@H]2O)[C@@H](CC=O)C[C@@H](C)C(=O)/C=C/C(C)=C/[C@@H]1CO[C@@H]1O[C@H](C)[C@@H](O)[C@@H](OC)[C@H]1OC [Tylosin tartrate] | 0% |
| N=C(N)NC(=N)N1CCOCC1 [Moroxydine HCl] | 0.197% |
| CC1=Nc2ccc(Cl)cc2S(=O)(=O)N1 [Diazoxide] | 0% |
| O=c1[nH]c2ccccc2n1C1CCN(CCCC(c2ccc(F)cc2)c2ccc(F)cc2)CC1 [Pimozide] | 0% |
| CNC[C@H](O)c1ccc(O)c(O)c1 [Epinephrine bitartrate] | 10.7% |
| O=C(CCNNC(=O)c1ccncc1)NCc1ccccc1 [Nialamide] | 25% |
| CC(C)(CO)[C@@H](O)C(=O)NCCCO [D panthenol] | 0% |
| O=C(O)[C@H](O)[C@@H](O)[C@H](O)[C@H](O)CO [Calcium gluconate] | 0% |
| CC(C)NCC(O)c1cc(O)cc(O)c1 (stereo not shown) [Metaproterenol Sulfate] | 2.56% |
| O=C(O)C(O)C(O)C(=O)O (stereo not shown) [Choline bitartrate] | 0% |
| CC(C(=O)O)c1cccc(C(=O)c2ccccc2)c1 (stereo not shown) [Ketoprofen] | 0% |
| Cn1nnnc1SCC1=C(C(=O)O)N2C(=O)[C@@H](NC(=O)[C@H](OC=O)c3ccccc3)[C@H]2SC1 [Cefamandole nafate] | 0% |
| CCC(=O)O[C@]1(C(=O)SCF)[C@H](C)C[C@H]2[C@@H]3C[C@H](F)C4=CC(=O)C=C[C@]4(C)[C@@]3(F)[C@@H](O)C[C@@]21C [Fluticasone propionate] | 9.66% |
| CN1C(C(=O)Nc2ccccn2)=C(O)c2ccccc2S1(=O)=O [Piroxicam] | 38% |
| Nc1nc(Cl)nc2c1ncn2[C@H]1C[C@H](O)[C@@H](CO)O1 [Cladribine] | 1.17% |
| COc1ccc(CN(CCN(C)C)c2ccccn2)cc1 [Pyrilamine Maleate] | 5.37% |
